Measurements published in PubChem BioAssay AID330 (DTP/NCI, 2004).
“And” between values parts separate entries of the source, which are not always exact repeats. Equal values may be shown once. Toxic doses and inconclusive results are not listed. How the source made its calls: active means survival T/C of 150% or more; inactive means T/C below 125% in these data.

System: P388 leukemia ip, CD2F1 mice, survival T/C
Experiment: NCI In Vivo Anticancer Drug Screen. Data for tumor model P388 Leukemia (intraperitoneal) in CD2F1 (CDF1) mice
Details: endpoint: median survival time, higher = longer survival
Summary of the method: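 Mice carrying the transplanted tumor received test compound or vehicle. Survival was recorded in each group, and the value is the treated-group measurement divided by that of the vehicle-treated control group.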

[1] = dose: 50.0 mg/kg/injection, schedule: Q01DX009 (ip), vehicle: saline
[2] = dose: 100.0 mg/kg/injection, schedule: Q01DX009 (ip), vehicle: saline
[3] = dose: 200.0 mg/kg/injection, schedule: Q01DX009 (ip), vehicle: saline
[4] = dose: 50.0 mg/kg/injection, schedule: Q01DX005 (ip), vehicle: saline with Tween-80
[5] = dose: 100.0 mg/kg/injection, schedule: Q01DX005 (ip), vehicle: saline with Tween-80
[6] = dose: 200.0 mg/kg/injection, schedule: Q01DX005 (ip), vehicle: saline with Tween-80
[7] = dose: 100.0 mg/kg/injection, schedule: Q01DX001 (ip), vehicle: saline with Tween-80
[8] = dose: 200.0 mg/kg/injection, schedule: Q01DX001 (ip), vehicle: saline with Tween-80
[9] = dose: 50.0 mg/kg/injection, schedule: Q01DX009 (ip), vehicle: saline with Tween-80
[10] = dose: 100.0 mg/kg/injection, schedule: Q01DX009 (ip), vehicle: saline with Tween-80
[11] = dose: 200.0 mg/kg/injection, schedule: Q01DX009 (ip), vehicle: saline with Tween-80
[12] = dose: 100.0 mg/kg/injection, schedule: Q04DX003 (ip), vehicle: saline

Measured: T/C

CC(C)(C)OC(OC1(C)COC1=O)C1(C)CO1 (stereo not given)
inactive: dose: 50.0 mg/kg/injection, schedule: Q01DX005 (ip), vehicle: saline 87 % of control | dose: 50.0 mg/kg/injection, schedule: Q01DX005 (ip), vehicle: water 103 % of control | dose: 100.0 mg/kg/injection, schedule: Q01DX005 (ip), vehicle: saline 86 % of control | dose: 100.0 mg/kg/injection, schedule: Q01DX005 (ip), vehicle: water 105 % of control | dose: 200.0 mg/kg/injection, schedule: Q01DX005 (ip), vehicle: saline 97 % of control | dose: 200.0 mg/kg/injection, schedule: Q01DX005 (ip), vehicle: water 90 % of control

O=C(O)C1CSC2(CCCN(Cc3ccccc3)C2)N1 (stereo not given)
inactive: [1] 96 % of control | [2] 106 % of control | [3] 113 % of control

OCC(O)C1OC(c2ccccc2)OC(CO)C1O (stereo not given)
inactive: [4] 100 % of control | [5] 109 % of control | [6] 102 % of control

CC(=O)C1=CCC2C3=CCC4=CC(O)[C@@H](O)C[C@]4(C)C3C[C@@H](O)[C@]12C (stereo not given in full)
inactive: dose: 0.94 mg/kg/injection, schedule: Q01DX005 (ip), vehicle: saline + alcohol 100 % of control | dose: 1.88 mg/kg/injection, schedule: Q01DX005 (ip), vehicle: saline + alcohol 108 % of control | dose: 3.75 mg/kg/injection, schedule: Q01DX005 (ip), vehicle: saline + alcohol 108 % of control | dose: 6.25 mg/kg/injection, schedule: Q01DX005 (ip), vehicle: saline + Tween-80 + alcohol 100 % of control | dose: 7.5 mg/kg/injection, schedule: Q01DX005 (ip), vehicle: saline + alcohol 104 % of control | dose: 12.5 mg/kg/injection, schedule: Q01DX005 (ip), vehicle: saline + Tween-80 + alcohol 112 % of control | dose: 25.0 mg/kg/injection, schedule: Q01DX005 (ip), vehicle: saline + Tween-80 + alcohol 109 % of control | dose: 50.0 mg/kg/injection, schedule: Q01DX005 (ip), vehicle: saline + Tween-80 + alcohol 118 % of control

O=c1[nH]c(=O)n(CC(O)CO)cc1/C=C/Br (stereo not given)
inactive: [7] 106 % of control | [8] 101 % of control | dose: 400.0 mg/kg/injection, schedule: Q01DX001 (ip), vehicle: saline with Tween-80 100 % of control

CN(C(=S)Nc1ccccc1)c1nnn(C)n1
inactive: [9] 98 % of control | [10] 100 % of control | [11] 107 % of control

COc1ccc2c(c1[N+](=O)[O-])CCCCC2=O
inactive: dose: 100.0 mg/kg/injection, schedule: Q01DX009 (sc), vehicle: olive oil, sesame oil, peanut oil 104 % of control | dose: 200.0 mg/kg/injection, schedule: Q01DX009 (sc), vehicle: olive oil, sesame oil, peanut oil 95 % of control | dose: 400.0 mg/kg/injection, schedule: Q01DX009 (sc), vehicle: olive oil, sesame oil, peanut oil 107 % of control

C1=NC2=C(CCc3ccccc32)C2=NCCN12
inactive: dose: 10.0 mg/kg/injection, schedule: Q04DX002 (ip), vehicle: saline with Tween-80 100 % of control | dose: 20.0 mg/kg/injection, schedule: Q04DX002 (ip), vehicle: saline with Tween-80 96 % of control | dose: 40.0 mg/kg/injection, schedule: Q04DX002 (ip), vehicle: saline with Tween-80 100 % of control

NC(N)=NC(N)=Nc1ccc(Cl)c(Cl)c1
inactive: dose: 12.5 mg/kg/injection, schedule: Q01DX009 (ip), vehicle: saline with Tween-80 103 % of control | dose: 25.0 mg/kg/injection, schedule: Q01DX009 (ip), vehicle: saline with Tween-80 103 % of control and 106 % of control | [9] 112 % of control and 93 % of control | [10] 88 % of control | [12] 109 % of control

CC1=C(C)OP(=O)(O)O1
inactive: [9] 100 % of control | [1] 100 % of control | [10] 100 % of control | [2] 96 % of control | [11] 95 % of control | [3] 100 % of control

COC(=O)C1=C2\c3cc4c(cc3CCN2C(=O)c2ccc(OC)c(OC)c2/C(OC)=C\1)OCO4
inactive: [4] 93 % of control | [5] 90 % of control | [6] 90 % of control

OC(COc1cccc2ccccc12)CN(CCCl)CCCl (stereo not given)
inactive: dose: 1.25 mg/kg/injection, schedule: Q01DX009 (ip), vehicle: saline 122 % of control | dose: 20.0 mg/kg/injection, schedule: Q01DX009 (ip), vehicle: saline 91 % of control

NC(=O)CCn1cnc2c(N)ncnc21
inactive: dose: 25.0 mg/kg/injection, schedule: Q04DX003 (ip), vehicle: saline 100 % of control | dose: 50.0 mg/kg/injection, schedule: Q04DX003 (ip), vehicle: saline 100 % of control | [12] 99 % of control

ICC1COC(CI)CO1 (stereo not given)
inactive: [10] 100 % of control | [11] 104 % of control | dose: 400.0 mg/kg/injection, schedule: Q01DX009 (ip), vehicle: saline with Tween-80 90 % of control

O=C1[O][Sn]2([Cl])[NH]C1C[S]2 (stereo not given)
inactive: dose: 50.0 mg/kg/injection, schedule: Q01DX005 (ip), vehicle: Klucel (hydroxypropylcellulose) (HPC) 100 % of control | dose: 100.0 mg/kg/injection, schedule: Q01DX005 (ip), vehicle: Klucel (hydroxypropylcellulose) (HPC) 102 % of control

CCOC(=O)C(=O)Nc1ccccc1C#N
inactive: dose: 50.0 mg/kg/injection, schedule: Q01DX009 (ip), vehicle: saline + alcohol 105 % of control | dose: 100.0 mg/kg/injection, schedule: Q01DX009 (ip), vehicle: saline + alcohol 99 % of control | dose: 200.0 mg/kg/injection, schedule: Q01DX009 (ip), vehicle: saline + alcohol 101 % of control

Nc1ccc2ncccc2c1[N+](=O)[O-]
inactive: dose: 100.0 mg/kg/injection, schedule: Q04DX003 (ip), vehicle: saline with Tween-80 95 % of control | dose: 200.0 mg/kg/injection, schedule: Q04DX003 (ip), vehicle: saline with Tween-80 94 % of control

CC(=O)Nc1ccc(C(=O)C(C)=O)cc1
inactive: [9] 100 % of control | [10] 104 % of control | [11] 97 % of control

COc1ccc(Cl)cc1NC(=O)NNC(=O)C(=O)NC1CC1
inactive: [9] 100 % of control | [10] 97 % of control | [11] 102 % of control

Cn1nnn(Cc2ccccc2)/c1=N/C(=S)Nc1ccccc1
inactive: dose: 100.0 mg/kg/injection, schedule: Q01DX001 (ip), vehicle: Klucel (hydroxypropylcellulose) (HPC) 99 % of control | dose: 200.0 mg/kg/injection, schedule: Q01DX001 (ip), vehicle: Klucel (hydroxypropylcellulose) (HPC) 95 % of control | dose: 400.0 mg/kg/injection, schedule: Q01DX001 (ip), vehicle: Klucel (hydroxypropylcellulose) (HPC) 86 % of control

Cc1c2c(cc3c1[nH]c1ccccc13)C(=O)c1ccccc1C2=O
inactive: dose: 12.5 mg/kg/injection, schedule: Q01DX005 (ip), vehicle: saline with Tween-80 94 % of control | dose: 25.0 mg/kg/injection, schedule: Q01DX005 (ip), vehicle: saline with Tween-80 95 % of control | [4] 92 % of control and 94 % of control | [6] 87 % of control

O=[N+]([O-])c1cccc2c1nnn2OC1CCCC1
inactive: [7] 102 % of control | [8] 98 % of control

Cc1cc2nc3c(=O)[nH]c(=O)nc-3n(CC=O)c2cc1C
inactive: dose: 16.0 mg/kg/injection, schedule: Q01DX009 (ip), vehicle: saline with Tween-80 92 % of control | dose: 32.0 mg/kg/injection, schedule: Q01DX009 (ip), vehicle: saline with Tween-80 91 % of control | dose: 64.0 mg/kg/injection, schedule: Q01DX009 (ip), vehicle: saline with Tween-80 90 % of control | dose: 128.0 mg/kg/injection, schedule: Q01DX009 (ip), vehicle: saline with Tween-80 90 % of control | dose: 135.0 mg/kg/injection, schedule: Q01DX009 (ip), vehicle: saline with Tween-80 104 % of control | dose: 180.0 mg/kg/injection, schedule: Q01DX009 (ip), vehicle: saline with Tween-80 104 % of control | dose: 240.0 mg/kg/injection, schedule: Q01DX009 (ip), vehicle: saline with Tween-80 104 % of control | dose: 256.0 mg/kg/injection, schedule: Q01DX009 (ip), vehicle: saline with Tween-80 102 % of control | dose: 320.0 mg/kg/injection, schedule: Q01DX009 (ip), vehicle: saline with Tween-80 102 % of control

CC(C)=CCC(OC1OC(CO)C(O)C(O)C1N)C1=CC(=O)c2c(O)ccc(O)c2C1=O (stereo not given)
inactive: dose: 2.5 mg/kg/injection, schedule: Q04DX002 (ip), vehicle: saline 103 % of control | dose: 5.0 mg/kg/injection, schedule: Q04DX002 (ip), vehicle: saline 111 % of control | dose: 10.0 mg/kg/injection, schedule: Q04DX002 (ip), vehicle: saline 114 % of control | dose: 20.0 mg/kg/injection, schedule: Q04DX002 (ip), vehicle: saline 113 % of control | dose: 40.0 mg/kg/injection, schedule: Q04DX002 (ip), vehicle: saline 111 % of control
